System: cyanamide
Assay: Utilization of cyanamide in rich YPD medium by S. cerevisiae strains
Format: cell-based
Settings: 10 mM cyanamide in YPD medium
Method: Optical density of NS100 and NS101 grown in rich YPD medium with 100 μg/mL hydgromycin and with and without 10 mM cyanamide. NS100 and NS101 were grown overnight in YNB medium, and inoculated at 3.33% v/v. […] Data are averages of 3 replicate wells in a 96 well plate; 150 μL per well. 30° C., YPD medium or YPD medium with 10 mM cyanamide. Inoculation was with 5 μL of culture pregrown for 24 hrs in the YNB medium with urea as nitrogen source.

In the case of `N#CN` [cyanamide], the “effect of cyanamide on microbial growth” value is reported as “act as a deterrent for microbial growth”.

— patent publication US10316323B2, “Microorganisms engineered to use unconventional sources of nitrogen” (priority 2013, dated 2019)
